Experimental data from PMC5218480 (PLoS ONE, 2017).

System: MV-4-11 cells
Test: Gene expression microarray analysis (Affymetrix PrimeView) and GSEA
Assay type: cell-based, human
Parameters: RFU PODN (11730768_x_at) / Fold change /veh PODN (11730768_x_at) / RFU LINC00158 (11744669_a_at) / Fold change /veh LINC00158 (11744669_a_at) / RFU DUSP10 (11751237_a_at) / Fold change /veh DUSP10 (11751237_a_at) / RFU ID3 (11757404_x_at) / Fold change /veh ID3 (11757404_x_at) / RFU PLEKHG5 (11737974_s_at) / Fold change /veh PLEKHG5 (11737974_s_at) / RFU LRRC4B (11730491_at) / Fold change /veh LRRC4B (11730491_at) / RFU GIMAP4 (11747438_a_at) / Fold change /veh GIMAP4 (11747438_a_at) / RFU KRT8 (11758183_x_at) / Fold change /veh KRT8 (11758183_x_at) / RFU CNN1 (11734310_a_at) / Fold change /veh CNN1 (11734310_a_at) / RFU VPS37D (11726825_at) / Fold change /veh VPS37D (11726825_at) / RFU C10orf10 (11716522_x_at) / Fold change /veh C10orf10 (11716522_x_at) / RFU KIR2DL2 /// KIR2DL4 /// KIR2DL5A /// KIR2DL5B /// KIR2DS1 /// KIR2DS2 /// KIR2DS3 /// KIR2DS4 /// KIR3DL3 /// KIR3DL3 /// KIR3DS1 (11738374_at) / Fold change /veh KIR2DL2 /// KIR2DL4 /// KIR2DL5A /// KIR2DL5B /// KIR2DS1 /// KIR2DS2 /// KIR2DS3 /// KIR2DS4 /// KIR3DL3 /// KIR3DL3 /// KIR3DS1 (11738374_at) / RFU C1QL1 (11718748_at) / Fold change /veh C1QL1 (11718748_at) / RFU TMPRSS4 (11747572_a_at) / Fold change /veh TMPRSS4 (11747572_a_at) / RFU HAMP (11756126_x_at) / Fold change /veh HAMP (11756126_x_at) / RFU RNFT2 (11725882_a_at) / Fold change /veh RNFT2 (11725882_a_at) / RFU NR4A2 (11747474_a_at) / Fold change /veh NR4A2 (11747474_a_at) / RFU ABCC12 (11746883_a_at) / Fold change /veh ABCC12 (11746883_a_at) / RFU TMEM136 (11760407_x_at) / Fold change /veh TMEM136 (11760407_x_at) / RFU CLDN22 /// WWC2 (11732394_at) / Fold change /veh CLDN22 /// WWC2 (11732394_at) / RFU HLA-DPB1 (11760878_x_at) / Fold change /veh HLA-DPB1 (11760878_x_at) / RFU SPINT1 (11716480_a_at) / Fold change /veh SPINT1 (11716480_a_at) / RFU GAP43 (11754022_s_at) / Fold change /veh GAP43 (11754022_s_at) / RFU A4GNT (11735810_at) / Fold change /veh A4GNT (11735810_at) / RFU PRB3 (11715151_x_at) / Fold change /veh PRB3 (11715151_x_at) / RFU TUBB4B (11761932_at) / Fold change /veh TUBB4B (11761932_at) / RFU CAPN14 (11732068_a_at) / Fold change /veh CAPN14 (11732068_a_at) / RFU TMCC2 (11721928_a_at) / Fold change /veh TMCC2 (11721928_a_at) / RFU IRGQ (11745062_a_at) / Fold change /veh IRGQ (11745062_a_at) / RFU FAM174B (11720279_a_at) / Fold change /veh FAM174B (11720279_a_at) / RFU TMPRSS4 (11748680_a_at) / Fold change /veh TMPRSS4 (11748680_a_at) / RFU FAM212B (11763350_a_at) / Fold change /veh FAM212B (11763350_a_at) / RFU PLEKHG5 (11743358_a_at) / Fold change /veh PLEKHG5 (11743358_a_at) / RFU ZSCAN30 (11745921_a_at) / Fold change /veh ZSCAN30 (11745921_a_at) / RFU CMKLR1 (11741424_a_at) / Fold change /veh CMKLR1 (11741424_a_at) / RFU LOC101060620 /// MAPK8IP1 (11723275_at) / Fold change /veh LOC101060620 /// MAPK8IP1 (11723275_at) / RFU SPTSSB (11747773_x_at) / Fold change /veh SPTSSB (11747773_x_at) / RFU PRSS12 (11739890_at) / Fold change /veh PRSS12 (11739890_at) / RFU BIN1 (11741810_x_at) / Fold change /veh BIN1 (11741810_x_at) / RFU WNT11 (11732464_a_at) / Fold change /veh WNT11 (11732464_a_at) / RFU C10orf10 (11716521_a_at) / Fold change /veh C10orf10 (11716521_a_at) / RFU C5orf56 (11738089_at) / Fold change /veh C5orf56 (11738089_at) / RFU CYB561 (11721691_x_at) / Fold change /veh CYB561 (11721691_x_at) / RFU ANKRD19P (11752326_a_at) / Fold change /veh ANKRD19P (11752326_a_at) / RFU OR2T12 /// OR2T33 /// OR2T8 (11738714_s_at) / Fold change /veh OR2T12 /// OR2T33 /// OR2T8 (11738714_s_at) / RFU VCAN (11748164_a_at) / Fold change /veh VCAN (11748164_a_at) / RFU JSRP1 (11732532_at) / Fold change /veh JSRP1 (11732532_at) / RFU KRTAP10-11 (11738290_x_at) / Fold change /veh KRTAP10-11 (11738290_x_at) / RFU MYO3A (11730013_a_at) / Fold change /veh MYO3A (11730013_a_at) / RFU EBF3 (11725865_a_at) / Fold change /veh EBF3 (11725865_a_at) / RFU CAMK2N1 (11719241_x_at) / Fold change /veh CAMK2N1 (11719241_x_at) / RFU C5orf56 (11738088_a_at) / Fold change /veh C5orf56 (11738088_a_at) / RFU OLFML3 (11715873_a_at) / Fold change /veh OLFML3 (11715873_a_at) / RFU LOC100653217 /// NTM (11731650_a_at) / Fold change /veh LOC100653217 /// NTM (11731650_a_at) / RFU MAPK11 (11762145_a_at) / Fold change /veh MAPK11 (11762145_a_at) / RFU FIZ1 (11724087_x_at) / Fold change /veh FIZ1 (11724087_x_at) / RFU OASL (11726364_x_at) / Fold change /veh OASL (11726364_x_at) / RFU SOX15 (11748057_x_at) / Fold change /veh SOX15 (11748057_x_at) / RFU CD79A (11719716_a_at) / Fold change /veh CD79A (11719716_a_at) / RFU HIST1H1D (11736915_at) / Fold change /veh HIST1H1D (11736915_at) / RFU CASKIN2 (11723855_a_at) / Fold change /veh CASKIN2 (11723855_a_at) / RFU LOC730098 (11760151_x_at) / Fold change /veh LOC730098 (11760151_x_at) / RFU OR4N2 (11742367_at) / Fold change /veh OR4N2 (11742367_at) / RFU PRRT2 (11749266_a_at) / Fold change /veh PRRT2 (11749266_a_at) / RFU SNX32 (11753110_a_at) / Fold change /veh SNX32 (11753110_a_at) / RFU CDHR5 (11726645_a_at) / Fold change /veh CDHR5 (11726645_a_at) / RFU RCAN1 (11760418_a_at) / Fold change /veh RCAN1 (11760418_a_at) / RFU FAM167A (11723789_a_at) / Fold change /veh FAM167A (11723789_a_at) / RFU FAM26E (11764081_at) / Fold change /veh FAM26E (11764081_at) / RFU ISYNA1 (11749810_s_at) / Fold change /veh ISYNA1 (11749810_s_at) / RFU ACY1 (11761880_at) / Fold change /veh ACY1 (11761880_at) / RFU 11764098_at / Fold change /veh 11764098_at / RFU SAMD14 (11745864_x_at) / Fold change /veh SAMD14 (11745864_x_at) / RFU NPB (11741838_a_at) / Fold change /veh NPB (11741838_a_at) / RFU TMPRSS6 (11731388_a_at) / Fold change /veh TMPRSS6 (11731388_a_at) / RFU KRTAP10-2 (11738614_at) / Fold change /veh KRTAP10-2 (11738614_at) / RFU ARHGAP8 /// PRR5-ARHGAP8 (11727945_x_at) / Fold change /veh ARHGAP8 /// PRR5-ARHGAP8 (11727945_x_at) / RFU KRTAP5-7 /// NADSYN1 (11734609_at) / Fold change /veh KRTAP5-7 /// NADSYN1 (11734609_at) / RFU RASL12 (11751679_a_at) / Fold change /veh RASL12 (11751679_a_at) / RFU CDKN2B (11736163_a_at) / Fold change /veh CDKN2B (11736163_a_at) / RFU PRF1 (11729649_at) / Fold change /veh PRF1 (11729649_at) / RFU, ZNF638 /// ZNF638-IT1 / Fold change vs veh, ZNF638 /// ZNF638-IT1 / RFU, PANK3 / Fold change vs veh, PANK3 / RFU, SH3YL1 / Fold change vs veh, SH3YL1 / RFU, ZEB2 / Fold change vs veh, ZEB2 / RFU, NRIP1 / Fold change vs veh, NRIP1 / RFU, PTTG1IP / Fold change vs veh, PTTG1IP / RFU, CAPN2 / Fold change vs veh, CAPN2 / RFU, MED14 / Fold change vs veh, MED14 / RFU, SNORA58 / Fold change vs veh, SNORA58 / RFU, C1orf63 / Fold change vs veh, C1orf63 / RFU, LRRFIP1 / Fold change vs veh, LRRFIP1 / RFU, NDUFAF7 / Fold change vs veh, NDUFAF7 / RFU, SLC12A2 / Fold change vs veh, SLC12A2 / RFU, IBTK / Fold change vs veh, IBTK / RFU, ESF1 / Fold change vs veh, ESF1 / Fold change vs veh, TMEM50B / RFU, TAOK1 / Fold change vs veh, TAOK1 / RFU, ACBD3 / Fold change vs veh, ACBD3 / RFU, TMA16 / Fold change vs veh, TMA16 / RFU, RWDD3 / Fold change vs veh, RWDD3 / RFU, BCAT1 / Fold change vs veh, BCAT1 / RFU, EDEM3 / Fold change vs veh, EDEM3 / RFU, TMEM33 / Fold change vs veh, TMEM33 / RFU, WDR75 / Fold change vs veh, WDR75 / RFU, AHCTF1 / Fold change vs veh, AHCTF1 / RFU, TFRC / Fold change vs veh, TFRC / RFU, ZDHHC17 / Fold change vs veh, ZDHHC17 / RFU, NOM1 / Fold change vs veh, NOM1 / RFU, ARL8B / Fold change vs veh, ARL8B / RFU, ZBTB11 / Fold change vs veh, ZBTB11 / RFU, TAMM41 / Fold change vs veh, TAMM41 / RFU, KIAA1704 /// LOC100996395 / Fold change vs veh, KIAA1704 /// LOC100996395 / RFU, ING1 / Fold change vs veh, ING1 / RFU, TRMT61B / Fold change vs veh, TRMT61B / RFU, FUBP3 / Fold change vs veh, FUBP3 / RFU, TP53 / Fold change vs veh, TP53 / RFU, TNKS2 / Fold change vs veh, TNKS2 / RFU, ZFP14 / Fold change vs veh, ZFP14 / RFU, ACTR2 / Fold change vs veh, ACTR2 / RFU, PPP3R1 / Fold change vs veh, PPP3R1 / RFU, PIK3R1 / Fold change vs veh, PIK3R1 / RFU, HNRNPA1 / Fold change vs veh, HNRNPA1 / RFU, RNF170 / Fold change vs veh, RNF170 / RFU, ZNF28 / Fold change vs veh, ZNF28 / RFU, RNGTT / Fold change vs veh, RNGTT / RFU, OGT / Fold change vs veh, OGT / RFU, BRD1 / Fold change vs veh, BRD1 / RFU, MARS / Fold change vs veh, MARS / RFU, ZNF655 / Fold change vs veh, ZNF655 / RFU, FAHD1 / Fold change vs veh, FAHD1 / RFU, BDP1 / Fold change vs veh, BDP1 / RFU, LRRCC1 / Fold change vs veh, LRRCC1 / RFU, ARID1A / Fold change vs veh, ARID1A / RFU, ZNF146 / Fold change vs veh, ZNF146 / RFU, ZNF330 / Fold change vs veh, ZNF330 / RFU, GPN3 / Fold change vs veh, GPN3 / RFU, C9orf123 / Fold change vs veh, C9orf123 / RFU, N4BP2L2 / Fold change vs veh, N4BP2L2 / RFU, ARFIP1 / Fold change vs veh, ARFIP1 / RFU, FAM179B / Fold change vs veh, FAM179B / RFU, BCL10 / Fold change vs veh, BCL10 / RFU, UHRF1BP1L / Fold change vs veh, UHRF1BP1L / RFU, BET1 / Fold change vs veh, BET1 / RFU, CNOT2 / Fold change vs veh, CNOT2 / RFU, ZNF268 / Fold change vs veh, ZNF268 / Fold change vs veh, ZNF507 / RFU, DGCR2 / Fold change vs veh, DGCR2 / RFU, WDSUB1 / Fold change vs veh, WDSUB1 / Fold change vs veh, HSP90B1 /// MIR3652 / RFU, ADSS / Fold change vs veh, ADSS / RFU, GK / Fold change vs veh, GK / RFU, ZNF148 / Fold change vs veh, ZNF148 / RFU, TAF9 / Fold change vs veh, TAF9 / RFU, SLC1A5 / Fold change vs veh, SLC1A5 / RFU, SLMO2 / Fold change vs veh, SLMO2 / RFU, ABCC4 / Fold change vs veh, ABCC4 / RFU, LOC101060439 /// RAP1B / Fold change vs veh, LOC101060439 /// RAP1B / RFU, RFX7 / Fold change vs veh, RFX7 / RFU, GTPBP10 / Fold change vs veh, GTPBP10 / RFU, CNEP1R1 / Fold change vs veh, CNEP1R1 / RFU, BIVM-ERCC5 /// ERCC5 / Fold change vs veh, BIVM-ERCC5 /// ERCC5 / RFU, ILF3 / Fold change vs veh, ILF3 / RFU 11762660_at / Fold change /veh 11762660_at / RFU VCAN (11757783_s_at) / Fold change /veh VCAN (11757783_s_at) / RFU DDX43 (11728927_at) / Fold change /veh DDX43 (11728927_at) / RFU KRT8 (11758188_x_at) / Fold change /veh KRT8 (11758188_x_at) / RFU NKD1 (11759106_at) / Fold change /veh NKD1 (11759106_at) / RFU SRD5A1 (11742802_a_at) / Fold change /veh SRD5A1 (11742802_a_at) / RFU TPSAB1 /// TPSB2 (11721975_s_at) / Fold change /veh TPSAB1 /// TPSB2 (11721975_s_at) / RFU GSTM3 (11746129_a_at) / Fold change /veh GSTM3 (11746129_a_at) / RFU IL23R (11737362_x_at) / Fold change /veh IL23R (11737362_x_at) / RFU TMEM51 (11727254_a_at) / Fold change /veh TMEM51 (11727254_a_at) / RFU PIWIL2 (11732686_x_at) / Fold change /veh PIWIL2 (11732686_x_at) / RFU ORM1 (11744905_x_at) / Fold change /veh ORM1 (11744905_x_at) / RFU CCDC152 (11743942_at) / Fold change /veh CCDC152 (11743942_at) / RFU ECM1 (11717891_a_at) / Fold change /veh ECM1 (11717891_a_at) / RFU IL23R (11748794_a_at) / Fold change /veh IL23R (11748794_a_at) / RFU TNFAIP8L3 (11732012_x_at) / Fold change /veh TNFAIP8L3 (11732012_x_at) / RFU MBOAT4 (11741988_at) / Fold change /veh MBOAT4 (11741988_at) / RFU 11764193_at / Fold change /veh 11764193_at / RFU TMEM53 (11763286_at) / Fold change /veh TMEM53 (11763286_at) / RFU MAGEB2 (11727129_at) / Fold change /veh MAGEB2 (11727129_at) / RFU TMEM200A (11744735_a_at) / Fold change /veh TMEM200A (11744735_a_at) / RFU CCDC152 (11751479_a_at) / Fold change /veh CCDC152 (11751479_a_at) / RFU FAM211A (11726209_a_at) / Fold change /veh FAM211A (11726209_a_at) / RFU RGS16 (11746705_a_at) / Fold change /veh RGS16 (11746705_a_at) / RFU VCAN (11755009_s_at) / Fold change /veh VCAN (11755009_s_at) / RFU RHOB (11743442_s_at) / Fold change /veh RHOB (11743442_s_at) / RFU RGS16 (11720943_a_at) / Fold change /veh RGS16 (11720943_a_at) / RFU RGS16 (11720944_at) / Fold change /veh RGS16 (11720944_at) / RFU, VPS4B / Fold change vs veh, VPS4B / RFU, CREB1 / Fold change vs veh, CREB1 / RFU, DNAJC13 / Fold change vs veh, DNAJC13 / RFU, GNAQ / Fold change vs veh, GNAQ / RFU, CDK5R1 / Fold change vs veh, CDK5R1 / RFU, ZRANB3 / Fold change vs veh, ZRANB3 / RFU, CUL4A / Fold change vs veh, CUL4A / RFU, CCNY / Fold change vs veh, CCNY / RFU, UFL1 / Fold change vs veh, UFL1 / RFU, COG3 / Fold change vs veh, COG3 / RFU, DIAPH2 / Fold change vs veh, DIAPH2 / RFU, SKA2 / Fold change vs veh, SKA2 / RFU, AFF3 / Fold change vs veh, AFF3 / RFU, LMF1 / Fold change vs veh, LMF1 / RFU, IPO11 / Fold change vs veh, IPO11 / RFU, DFFB / Fold change vs veh, DFFB / RFU, FOXP1 / Fold change vs veh, FOXP1 / RFU, CARD8 / Fold change vs veh, CARD8 / RFU, STRN3 / Fold change vs veh, STRN3 / RFU, ADK / Fold change vs veh, ADK / RFU, RASSF2 / Fold change vs veh, RASSF2 / RFU, WIPF1 / Fold change vs veh, WIPF1 / RFU, LARP1B / Fold change vs veh, LARP1B / RFU, RASA1 / Fold change vs veh, RASA1 / RFU, RB1 / Fold change vs veh, RB1 / RFU, PPFIA1 / Fold change vs veh, PPFIA1 / RFU, MAT2A / Fold change vs veh, MAT2A / RFU, CCT5 / Fold change vs veh, CCT5 / RFU, WDR92 / Fold change vs veh, WDR92 / RFU, CUX1 / Fold change vs veh, CUX1 / RFU, TTC7A / Fold change vs veh, TTC7A / RFU, TMEM135 / Fold change vs veh, TMEM135 / RFU, DEPTOR / Fold change vs veh, DEPTOR / RFU, CPM / Fold change vs veh, CPM / RFU, DNAJB6 / Fold change vs veh, DNAJB6 / RFU, CACNA2D3 / Fold change vs veh, CACNA2D3 / RFU, DTX4 / Fold change vs veh, DTX4 / RFU, TFCP2 / Fold change vs veh, TFCP2 / RFU, GMCL1 /// GMCL1P1 / Fold change vs veh, GMCL1 /// GMCL1P1 / RFU, AEBP2 / Fold change vs veh, AEBP2 / RFU, SNHG1 /// SNORD22 /// SNORD25 /// SNORD26 /// SNORD27 /// SNORD28 /// SNORD29 /// SNORD31 / Fold change vs veh, SNHG1 /// SNORD22 /// SNORD25 /// SNORD26 /// SNORD27 /// SNORD28 /// SNORD29 /// SNORD31 / Fold change (Aza/veh), C12orf56 (ProbeSet 11735607_a_at) / Fold change (ACY-1035/veh), C12orf56 (ProbeSet 11735607_a_at) / Fold change (Aza/veh), FGFR1OP (ProbeSet 11751329_s_at) / Fold change (ACY-1035/veh), FGFR1OP (ProbeSet 11751329_s_at) / Fold change (Aza/veh), VPS36 (ProbeSet 11739960_a_at) / Fold change (ACY-1035/veh), VPS36 (ProbeSet 11739960_a_at) / RFU SYPL1 (11715823_x_at) / Fold change /veh SYPL1 (11715823_x_at) / RFU IGFBP7 (11715501_s_at) / Fold change /veh IGFBP7 (11715501_s_at) / RFU REEP3 (11722064_at) / Fold change /veh REEP3 (11722064_at) / RFU IGLL1 (11728026_x_at) / Fold change /veh IGLL1 (11728026_x_at): dose or concentration left out as unconfirmed
Conditions: MV-4-11 cells, 48 hours

Nc1ncn([C@@H]2O[C@H](CO)[C@@H](O)[C@H]2O)c(=O)n1 [azacitidine]
Fold change /veh WNT11 (11732464_a_at): 0.83
